In patent publication US11028090B2 (Dong Wha Pharm. Co., Ltd., priority 2017, dated 2021):
Where two headings read alike, the source gives them in different places.

Assays:
[1] = biological target: BRD4 (BD1+BD2) bromodomain (Homo sapiens (Human), UniProt O60885); test: BRD4 binding inhibition (AlphaScreen, GST-BRD4 vs tetraacetylated histone H4 peptide)
Procedure, shortened: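 GST-BRD4 (BD1+BD2) and biotinylated tetraacetyl-histone H4 peptide, each at 100 nM in HEPES pH 7.4 buffer with BSA and DTT, were combined with compound. Glutathione acceptor and streptavidin donor beads were added, then incubated 30 min at room temperature in the dark. Read-out was AlphaScreen signal.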

[2] = tested on: acute myelogenous leukemia cells (MV-4-11 cells); test: Cytotoxicity to acute myelogenous leukemia cells (MV-4-11 cells), CCK-8; details: Homo sapiens, MV4-11, 72 h
[3] = GST-BRD4 (BD1+BD2) / biotinylated acetyl-histone H4 (Lys5,8,12,16) peptide, read-out: IC50, BRD4 binding inhibition
[4] = GST-BRD4 (BD1+BD2) vs biotinylated acetyl-histone H4 peptide, AlphaScreen, read-out: BRD4 IC50
[5] = read-out: MV-4-11 Cytotoxicity IC50
[6] = read-out: IC50, cytotoxicity against acute myelogenous leukemia cells

| SMILES | IC50 [1, 3] | IC50 [1, 4] | IC50 [2, 5] | IC50 [2, 6] |
| --- | --- | --- | --- | --- |
| Cc1nnc2c(NCCCCNC(=O)OC(C)(C)C)nc3cc(OCCN4CCOCC4)ccc3n12 [Example 430, {4-[1-methyl-7-(2-morpholine-4-yl-ethoxy)-[1,2,4]triazolo[4,3-a]quinoxaline-4-ylamino]-butyl}-carbamic acid-tert-butylester] | ≤ 50 nM | 22 nM | 600 nM | – |
| COc1ccc2c(c1)nc(NCCCCNC(=O)SC(C)C)c1nnc(C)n12 [Example 336, [4-(7-methoxy-1-methyl-[1,2,4]triazolo[4,3-a]quinoxaline-4-ylamino)-butyl]-thiocarbamic acid-S-isopropyl ester] | ≤ 50 nM | 33 nM | 80 nM | ≤ 200 nM |
| COc1cc(N)c(NC(=O)c2ccc3c(c2)nc(NCCCCNC(=O)CC(C)C)c2nnc(C)n23)cc1OC [Example 217, 1-methyl-4-[4-(3-methyl-butyrylamino)-butylamino]-[1,2,4]triazolo[4,3-a]quinoxaline-7-carboxylic acid-(2-amino-4,5-dimethoxy-phenyl)-amide] | ≤ 50 nM | 16 nM | 256 nM | – |
| COc1ccccc1C(=O)NCCCCNc1nc2cc(-c3nc4ccccc4n3C)ccc2n2c(C)nnc12 [Example 237, 2-methoxy-N-{4-[1-methyl-7-(1-methyl-1H-benzoimidazole-2-yl)-[1,2,4]triazolo[4,3-a]quinoxaline-4-ylamino]-butyl}-benzamide] | ≤ 10 nM | 0.6 nM | 500 nM | – |
| COc1ccc2c(nc(NCCCCNC(=O)Cc3cccs3)c3nnc(C)n32)c1Cl [Example 463, N-[4-(6-chloro-7-methoxy-1-methyl-[1,2,4]triazolo[4,3-a]quinoxaline-4-ylamino)-butyl]-2-thiophene-2-yl-acetamide] | ≤ 50 nM | – | 100 nM | ≤ 200 nM |
| COc1ccc2c(c1)nc(NCCCCC(=O)NCC(C)C)c1nnc(C)n12 [Example 655, 5-(7-methoxy-1-methyl-[1,2,4]triazolo[4,3-a]quinoxaline-4-ylamino)-pentanoic acid isobutylamide] | ≤ 50 nM | 11 nM | 80 nM | ≤ 200 nM |
| Cc1nnc2c(NCCCCNC(=O)OCC(C)C)nc3cc(-n4ccnc4)ccc3n12 [Example 493] | ≤ 10 nM | 5 nM | 48 nM | ≤ 200 nM |
| Cc1nnc2c(NCCCCNC(=O)Cc3cccs3)nc3cc(OC(C)C)ccc3n12 [Example 451, N-[4-(7-isopropoxy-1-methyl-[1,2,4]triazolo[4,3-a]quinoxaline-4-ylamino)-butyl]-2-thiophene-2-yl-acetamide] | ≤ 50 nM | 13 nM | 24 nM | ≤ 200 nM |
| Cc1nnc2c(NCCCCNC(=O)CC(C)C)nc3cc(N4C[C@@H](C)O[C@@H](C)C4)ccc3n12 [Example 510, N-{4-[7-(2,6-dimethyl-morpholine-4-yl)-1-methyl-[1,2,4]triazolo[4,3-a]quinoxaline-4-ylamino]-butyl}-3-methyl-butyramide] | – | 57 nM | 335 nM | – |
| COCCOc1ccc2c(c1)nc(NCCCCNC(=O)c1ccccc1OC)c1nnc(C)n12 [Example 414, 2-methoxy-N-{4-[7-(2-methoxy-ethoxy)-1-methyl-[1,2,4]triazolo[4,3-a]quinoxaline-4-ylamino]-butyl}-benzamide] | ≤ 50 nM | 16 nM | 630 nM | – |
| Cc1nnc2c(NCCCCNC(=O)OC(C)(C)C)nc3cc(-c4nc5ccccc5[nH]4)ccc3n12 [Example 218, {4-[7-(1H-benzoimidazole-2-yl)-1-methyl-[1,2,4]triazolo[4,3-a]quinoxaline-4-ylamino]-butyl}-carbamic acid-tert-butylester] | ≤ 50 nM | 25 nM | 320 nM | – |
| Cc1nnc2c(NCCCCNC(=O)[C@@H](NC(=O)OCC(C)C)C(C)C)nc3cc(N4C[C@@H](C)O[C@@H](C)C4)ccc3n12 [Example 515, (S)-(1-{4-[7-(2,6-dimethyl-morpholine-4-yl)-1-methyl-[1,2,4]triazolo[4,3-a]quinoxaline-4-ylamino]-butylcarbamoyl}-2-methyl-propyl)-carbamic acid isobutylester] | ≤ 50 nM | – | 90 nM | ≤ 200 nM |
| CCCOC(=O)N[C@H](C(=O)NCCCCNc1nc2cc(OCCOC)ccc2n2c(C)nnc12)C(C)C [Example 399, (S)-(1-{4-[7-(2-methoxy-ethoxy)-1-methyl-[1,2,4]triazolo[4,3-a]quinoxaline-4-ylamino]-butylcarbamoyl}-2-methyl-propyl)-carbamic acid propylester] | ≤ 10 nM | 1 nM | 570 nM | – |
| Cc1nnc2c(NCCCCNC(=O)CC(C)C)nc3cc(NCCCC#N)ccc3n12 [Example 254, N-{4-[7-(3-cyano-propylamino)-1-methyl-[1,2,4]triazolo[4,3-a]quinoxaline-4-ylamino]-butyl}-3-methyl-butyramide] | ≤ 10 nM | 7 nM | 101 nM | ≤ 200 nM |
| COc1ccc2c(c1)nc(NCCCCNC(=O)OC(C)(C)C)c1nnc(C)n12 [Example 275, [4-(7-methoxy-1-methyl-[1,2,4]triazolo[4,3-a]quinoxaline-4-ylamino)-butyl]-carbamic acid-tert-butylester] | ≤ 50 nM | 38 nM | 330 nM | – |
| COc1cc2c(cc1F)nc(NCCCCNC(=O)CC(C)C)c1nnc(C)n12 [Example 575, N-[4-(7-fluoro-8-methoxy-1-methyl-[1,2,4]triazolo[4,3-a]quinoxaline-4-ylamino)-butyl]-3-methyl-butyramide] | – | 51 nM | 337 nM | – |
| CCOc1ccc2c(c1)nc(NCCCCNC(=O)Cc1cccs1)c1nnc(C)n12 [Example 446, N-[4-(7-ethoxy-1-methyl-[1,2,4]triazolo[4,3-a]quinoxaline-4-ylamino)-butyl]-2-thiophene-2-yl-acetamide] | ≤ 50 nM | 12 nM | 10 nM | ≤ 200 nM |
| COc1cc2nc(NCCCCNC(=O)C3CC3)c3nnc(C)n3c2cc1OC [Example 76, cyclopropane-carboxylic acid-[4-(7,8-dimethoxy-1-methyl-[1,2,4]triazolo[4,3-a]quinoxaline-4-ylamino)-butyl]-amide] | ≤ 50 nM | 38 nM | 870 nM | – |

Further lines, with some results ahead:

| IC50 [1, 3] | IC50 [1, 4] | SMILES | IC50 [2, 5] | IC50 [2, 6] |
| --- | --- | --- | --- | --- |
| ≤ 50 nM | 13 nM | CNc1cc2c(cc1OC)nc(NCCCCNC(=O)CC(C)C)c1nnc(C)n12 [Example 557, N-[4-(7-methoxy-1-methyl-8-methylamino-[1,2,4]triazolo[4,3-a]quinoxaline-4-ylamino)-butyl]-3-methyl-butyramide] | 280 nM | – |
| – | 65 nM | COc1cc2nc(NCCCCNC(=O)CC(C)C)c3nnc(C)n3c2cc1[N+](=O)[O-] [Example 555, N-[4-(7-methoxy-1-methyl-8-nitro-[1,2,4]triazolo[4,3-a]quinoxaline-4-ylamino)-butyl]-3-methyl-butyramide] | 118 nM | ≤ 200 nM |
| ≤ 50 nM | 43 nM | COc1ccc2c(c1)nc(NCCCCNC(=O)C(N)C(C)C)c1nnc(C)n12 (stereo not drawn) [Example 311, 2-amino-N-[4-(7-methoxy-1-methyl-[1,2,4]triazolo[4,3-a]quinoxaline-4-ylamino)-butyl]-3-methyl-butyramide] | 208 nM | – |
| ≤ 50 nM | 19 nM | Cc1nnc2c(NCCCCNC(=O)Cc3cccs3)nc3cc4c(cc3n12)OCCO4 [Example 185, N-[4-(1-methyl-8,9-dihydro-7,10-dioxa-2,3,5,11b-tetraaza-cyclopenta[a]anthracene-4-ylamino)-butyl]-2-thiophene-2-yl-acetamide] | 20 nM | ≤ 200 nM |
| ≤ 50 nM | 12 nM | CCC(C)OC(=O)NCCCCNc1nc2cc(OC)c(OC)cc2n2c(C)nnc12 (stereo not drawn) [Example 63, [4-(7,8-dimethoxy-1-methyl-[1,2,4]triazolo[4,3-a]quinoxaline-4-ylamino)-butyl]-carbamic acid-sec-butylester] | 70 nM | ≤ 200 nM |
| ≤ 50 nM | 32 nM | COc1cc2nc(NCCCCNC(=O)CC(C)C)c3nnc(C)n3c2cc1NC(=O)CC(C)C [Example 562, N-{4-[7-methoxy-1-methyl-8-(3-methyl-butyrylamino)-[1,2,4]triazolo[4,3-a]quinoxaline-4-ylamino]-butyl}-3-methyl-butyramide] | 375 nM | – |
| ≤ 50 nM | – | COCCOc1ccc2c(c1)nc(NCCCCNC(=O)C(C)(C)C)c1nnc(C)n12 [Example 375, {4-[7-(2-methoxy-ethoxy)-1-methyl-[1,2,4]triazolo[4,3-a]quinoxaline-4-ylamino]-butyl}-2,2-dimethyl-propionamide] | 400 nM | – |
| ≤ 50 nM | – | COc1cc2nc(NCCCCNC(=O)CC(C)C)c3nnc(C)n3c2cc1NC(=O)CC(C)(C)C [Example 563] | 559 nM | – |
| ≤ 50 nM | 14 nM | COCCOc1ccc2c(c1)nc(NCCCCNC(=O)Cc1cccs1)c1nnc(C)n12 [Example 406, N-{4-[7-(2-methoxy-ethoxy)-1-methyl-[1,2,4]triazolo[4,3-a]quinoxaline-4-ylamino]-butyl}-2-thiophene-2-yl-acetamide] | 19 nM | ≤ 200 nM |
| ≤ 50 nM | 12 nM | CCC(C)CNC(=O)CCCCNc1nc2cc(OC)ccc2n2c(C)nnc12 (stereo not drawn) [Example 656, 5-(7-methoxy-1-methyl-[1,2,4]triazolo[4,3-a]quinoxaline-4-ylamino)-pentanoic acid-(2-methyl-butyl)-amide] | 150 nM | ≤ 200 nM |
